According to paper PMC3436077 (DARU Journal of Pharmaceutical Sciences, 2011):

Key:
[1] = mice; cited from earlier work
[2] = Apical-to-basal transwell transport across MDCK II cell monolayer; conditions: dog, MDCK
MDCK II cells = assay: as above
P-glycoprotein (PGP) = assay: as above; conditions: dog, MDCK, M6G permeability in the presence of cyclosporine, MDCK II cells, cyclosporine (10 µM), PGP inhibitor

CN1CC[C@]23c4c5ccc(O)c4O[C@H]2[C@@H](O[C@@H]2O[C@H](C(=O)O)[C@@H](O)[C@H](O)[C@H]2O)C=C[C@H]3[C@H]1C5 [M6G, Morphine-6-glucuronide]
Change of M6G brain uptake in the presence of digoxin [1]: threefold reduction
Papp at 100 min ([2]; M6G permeability in the presence of d-glucose, d-glucose 5µ M, MDCK II, P < 0.05): 2.06 ± 0.02 ×10⁻⁶ cm/s
Papp at 100 min ([2]; M6G permeability in the presence of digoxin, digoxin 5µ M, MDCK II, P < 0.05): 2.64 ± 0.11 ×10⁻⁶ cm/s
Papp at 100 min ([2]; M6G permeability in the presence of probenecid, probenecid 10µ M, MDCK II, P > 0.05): 2.95 ± 0.06 ×10⁻⁶ cm/s
Papp at 100 min, 100 µg/ml ([2]; Permeability ± SD in the presence of morphine, M6G 100 µg/ml + morphine 61,820 ng/ml, MDCK II): 3.31 ± 0.14 ×10⁻⁶ cm/s
Papp at 100 min, 100 µg/ml ([2]; Permeability ± SD, M6G 100 µg/ml alone, MDCK II): 2.92 ± 0.02 ×10⁻⁶ cm/s
Papp at 100 min ([2]; Permeability, MDCK II cells, A→B, 100 min, M6G 100 µg/ml, sucrose 8,000,000 DPM/ml, N=4): 2.94 ± 0.03 ×10⁻⁶ cm/s
M6G apical to basal movement relative to morphine (times lower) (MDCK II cells; morphine value from earlier paper): 10 times
Morphine in apical and basal chambers (de-glucuronidation of M6G) (MDCK II cells; t= 100 min, sensitive morphine assay): not a significant or detectable morphine
Papp at 100 min (P-glycoprotein (PGP)): 3.16 ± 0.01 ×10⁻⁶ cm/s
